Target: T1, 5-hydroxytryptamine receptor 3A (Rattus norvegicus, UniProt P35563)
T1 sequence (P35563 whole entry): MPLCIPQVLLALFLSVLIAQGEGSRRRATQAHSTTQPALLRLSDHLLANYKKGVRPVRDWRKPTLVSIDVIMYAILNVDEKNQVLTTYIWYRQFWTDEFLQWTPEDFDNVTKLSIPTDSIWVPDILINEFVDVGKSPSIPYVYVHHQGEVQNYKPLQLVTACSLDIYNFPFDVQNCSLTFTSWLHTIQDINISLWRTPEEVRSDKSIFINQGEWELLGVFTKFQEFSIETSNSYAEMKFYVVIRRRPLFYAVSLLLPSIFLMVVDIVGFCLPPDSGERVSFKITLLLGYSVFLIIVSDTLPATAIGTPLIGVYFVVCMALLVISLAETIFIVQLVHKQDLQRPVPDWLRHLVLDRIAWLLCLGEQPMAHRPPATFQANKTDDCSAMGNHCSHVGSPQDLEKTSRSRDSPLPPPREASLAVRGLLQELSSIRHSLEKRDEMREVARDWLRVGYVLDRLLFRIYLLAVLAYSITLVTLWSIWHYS

Work on CN1C2CCC1CC(OC(=O)c1c[nH]c3ccccc13)C2 (stereo unspecified) yielded a Ki of 2.8 nM.
